Legend:
Type in all cases: cell-based, human
[1] = system: P-P38; assay: Western blot; conditions: with increasing concentrations vs blank control, p < 0.001
Method: (§1) Drug grouping and administration were performed as described in Section 2.6. After 48 h of incubation, the supernatant was discarded, and the cells were washed twice with pre-cooled PBS. A volume of 150 µL of RIPA lysis buffer (Solarbio, Beijing, China) was added and incubated on ice. After sufficient lysis, the supernatant was centrifuged, and the protein concentration was determined using a BCA kit (Thermo, Waltham, MA, USA). The SDS-PAGE gel system was chosen based on the molecular weight of the target proteins to perform electrophoresis. After electrophoresis, the processed samples were transferred to a membrane and incubated at room temperature for 2 h to block non-specific binding. After membrane transfer, the membranes were incubated with primary antibodies against CypD (Proteintech Group, Wuhan, China), SIRT3 (Abcam, Cambridge, UK), P-MKK6 (Bioss, Beijing, China), P-P38 (Bioss, Beijing, China), DDIT3 (Bioss, Beijing, China), Cleaved-caspase-3 (Abcam, Cambridge, UK), and β-actin (ZSGB-BIO, Beijing, China) (1:1000) at 4 °C overnight. After primary antibody binding, the membranes were incubated with the corresponding secondary antibody (ZSGB-BIO, Beijing, China) (1:3000) at room temperature for 1 h. Immunoblot bands were detected using an enhanced chemiluminescence system (Analytik Jena AG, Jena, Germany). The bands were analyzed using ImageJ (v1.8.0) software.

[2] = system: P-MKK6; assay: Western blot; conditions: with increasing concentrations vs blank control, p < 0.001
Method: as §1

[3] = system: DDIT3; assay: Western blot; conditions: vs blank control, p < 0.001
Method: as §1

[4] = system: CypD; assay: Western blot; conditions: 48 h
Method: as §1

[5] = system: Cl-caspase-3; assay: Western blot; conditions: 48 h
Method: as §1

[6] = system: SIRT3; assay: Western blot; conditions: 48 h
Method: as §1

[7] = system: HEK293; assay: MTT assay, cytotoxicity to normal cell line
Method: Human cancer cell lines BEL-7402, A549, MCF-7, PC-3M, and normal renal cell line HEK293 were bought from the BeNa Culture Collection (Beijing, China). BEL7402, A549, and PC-3M were cultured in RPMI 1640 medium (Gibco, Carlsbad, CA, USA). MCF-7 and HEK293 were cultured in the DMEM medium (Gibco, CA, USA). The medium was supplemented with 10% fetal bovine serum (FBS) (CLARK, San Diego, CA, USA), 100 U/mL penicillin, and 0.1 mg/mL streptomycin (Beyotime, Nanjing, China). The cells were incubated in 5% CO2 at 37 °C.
The MTT assay was employed to assess the inhibitory effect of each compound on cell growth. A549, PC-3M, MCF-7, BEL-7402, and HEK293 cells in the logarithmic growth phase were seeded in 96-well culture plates at an inoculum density of 5 × 10^4 cells/mL. After overnight incubation at 37 °C in a 5% CO2 atmosphere, the cells fully adhered to the surface. Different concentrations of sample solutions (0, 3.125, 6.25, 12.5, 25, 50, 100 μmol/L) were added (100 μL) to treat the cells. After 48 h of drug treatment, 10 μL of a 5 mg/mL MTT solution was added to each well and incubated for 4 h at 37 °C. The supernatant was then discarded, and 150 μL of DMSO was added to dissolve the formazan. The mixture was shaken at room temperature for 15 min, and the absorbance (D) value was measured at 490 nm using a Microplate Reader (HBS-ScanY, Nanjing, China). The drug IC50 values were calculated using GraphPad Prism (v10.0). Each cell viability experiment was performed in triplicate.

[8] = system: BEL-7402 cells; assay: Calcein AM/CoCl2 probe, MPTP opening; conditions: increasing drug concentration, 24 h
Method: Drug grouping and administration were performed as described in Section 2.5. After 24 h of incubation, 500 μL of staining solution (containing 2 μM Calcein AM and 5 mM CoCl2) (Aladdin, Shanghai, China) was added to each well. The cells were stained for 30 min at 37 °C and protected from light. After staining, the solution was discarded, and the cells were washed twice with PBS. The cells were then observed under an inverted fluorescence microscope.

[9] = system: BEL-7402 cells; assay: DCFH-DA probe, intracellular ROS by flow cytometry; conditions: 48-h treatment, dose-dependent
Method: Drug grouping and administration were performed as described in Section 2.6. After 48 h of incubation, 500 μL of DCFH-DA probe (Beyotime, Nanjing, China) was added to each well. The cells were stained for 30 min at 37 °C and protected from light. The dye was then discarded, and the cells were washed three times with a serum-free medium. Samples were analyzed using flow cytometry with an excitation wavelength of 480 nm and an emission wavelength of 525 nm.

[10] = system: BEL-7402 cells; assay: Annexin V-FITC/PI flow cytometry apoptosis assay
Method: BEL-7402 cells in the logarithmic growth phase were prepared into a cell suspension at a concentration of 2.5 × 10^5 cells/mL and seeded into 6-well culture plates with 2 mL per well. After overnight incubation, different concentrations of Mito-ICT-4 (0.625, 1.25, 2.5 μmol/L) were added to the cells, and a control group was included. After 48 h of culture, the supernatant was transferred to a centrifuge tube. The cells were then digested with pancreatin (without EDTA) (Beyotime, Nanjing, China) at room temperature and centrifuged at 4 °C for 5 min (10,000 rpm). The supernatant was discarded. Then, 300 μL of 1× buffer was added to each group, and the mixture was well mixed. The mixture was then incubated with 5 μL of Annexin V-FITC (Solarbio, Beijing, China) solution at room temperature for 5 min, protected from light, followed by the addition of 5 μL of PI solution. Apoptosis was detected using flow cytometry (BD Biosciences, Franklin Lakes, NJ, USA).

[11] = low-concentration group vs control, p < 0.01

COc1ccc(-c2oc3c(CC=C(C)C)c(OC(=O)CCCCCCCCCC[P+](c4ccccc4)(c4ccccc4)c4ccccc4)cc(O)c3c(=O)c2O)cc1 [Mito-ICT-4]
expression level of P-P38 [1]: decreased significantly | expression level of P-MKK6 [2]: decreased significantly | expression level of DDIT3 [3]: increased significantly | CypD protein expression [4, 11]: elevated | CypD protein expression ([4]; medium and high-concentration groups vs control, p < 0.001): significantly higher | expression of Cl-caspase-3 ([5]; high-concentration group vs control, p < 0.001): significantly higher | expression of Cl-caspase-3 [5, 11]: elevated | SIRT3 expression levels [6, 11]: decreased | SIRT3 expression levels ([6]; medium- and high-concentration groups vs control, p < 0.001): significantly reduced | IC50 ([7]; Homo sapiens, HEK293, MTT, 48 h drug exposure, mean ± SD, normal cell line): 67.1 ± 2.09 µM | reduction compared to ICT (cytotoxicity in HEK293 cells) ([7]; from IC50 values in HEK293): 55.4% | morphology with Calcein AM/CoCl2 (MPTP opening) [8]: transitioned from oval to round and, ultimately, to an irregular shape | intracellular ROS levels [9]: significantly elevated | cells undergoing early apoptosis ([10]; BEL-7402 cells treated with Mito-ICT-4): 27.39% | apoptosis-inducing ability relative to ICT ([10]; BEL-7402 cells, sentence cites [24]): approximately 29.8 times | total apoptosis rate ([10]; high-dose group (2.5 μmol/L), 48 h): 27.39%

Reference: paper PMC12029982, “The Mechanism of a Novel Mitochondrial-Targeted Icaritin Derivative in Regulating Apoptosis of BEL-7402 Cells Based on the SIRT3 and CypD-Mediated ROS/p38 MAPK Signaling Pathway” (Molecules, 2025)
